Data published in BindingDB's records for patent US20240101544 (2024).

Columns and labels:
[1] = target: Glutaminyl-peptide cyclotransferase (Homo sapiens, UniProt Q16769); assay: QPCT Enzymatic Activity Assay
Protocol: QPCT activity was measured in a coupled-enzyme assay using the QPCT substrate, glutamine-7-amido-4-methylcoumarin (H-Gln-AMC, Bachem), which is converted to pyroglutamyl-AMC by QPCT. Pyroglutamyl-AMC is then converted to the fluorescent molecule, AMC, by incubation with the human enzyme pyroglutamyl peptidase-1 (PGPEP-1). […] Following the incubation, H-Gln-AMC substrate was diluted in assay buffer and added to each well for a final concentration of 10 μM. The reaction was incubated for 60 min at 37° C., before stopping it by boiling at 100° C. for 5 minutes and cooling the plate at 4° C. for 3 minutes. […] Following incubation, the fluorescence was measured with a plate reader using excitation at 380 nm and emission at 460 nm.

[2] = target: Glutaminyl-peptide cyclotransferase-like protein (Homo sapiens, UniProt Q9NXS2); assay: QPCTL Enzymatic Activity Assay
Protocol: QPCTL activity was measured in a coupled-enzyme assay using the QPCTL substrate, glutamine-7-amido-4-methylcoumarin (H-Gln-AMC, Bachem), which is converted to pyroglutamyl-AMC by QPCTL. Pyroglutamyl-AMC is then converted to the fluorescent molecule, AMC, by incubation with the human enzyme pyroglutamyl peptidase-1. […] Final concentrations of DMSO and test compounds were 2% and 30-100 μM, respectively. Following the incubation, H-Gln-AMC substrate was diluted in assay buffer and added to each well for a final concentration of 10 μM. The reaction was incubated for 60 min at 37° C., before stopping it by boiling at 100° C. for 5 minutes and cooling the plate at 4° C. for 3 minutes. […] Following incubation, the fluorescence was measured with a plate reader using excitation at 380 nm and emission at 460 nm.

Chain of Glutaminyl-peptide cyclotransferase (Q16769 whole entry): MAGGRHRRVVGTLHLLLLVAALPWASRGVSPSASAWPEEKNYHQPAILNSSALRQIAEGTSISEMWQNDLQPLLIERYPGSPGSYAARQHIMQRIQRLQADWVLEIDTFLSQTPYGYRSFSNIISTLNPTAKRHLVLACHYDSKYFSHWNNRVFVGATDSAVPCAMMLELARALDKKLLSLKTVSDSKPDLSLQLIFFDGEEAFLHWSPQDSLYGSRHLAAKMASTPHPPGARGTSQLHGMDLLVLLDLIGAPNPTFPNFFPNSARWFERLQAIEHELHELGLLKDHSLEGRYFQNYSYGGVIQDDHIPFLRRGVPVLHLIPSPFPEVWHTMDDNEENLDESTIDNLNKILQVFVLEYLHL
Chain of Glutaminyl-peptide cyclotransferase-like protein (Q9NXS2 whole entry): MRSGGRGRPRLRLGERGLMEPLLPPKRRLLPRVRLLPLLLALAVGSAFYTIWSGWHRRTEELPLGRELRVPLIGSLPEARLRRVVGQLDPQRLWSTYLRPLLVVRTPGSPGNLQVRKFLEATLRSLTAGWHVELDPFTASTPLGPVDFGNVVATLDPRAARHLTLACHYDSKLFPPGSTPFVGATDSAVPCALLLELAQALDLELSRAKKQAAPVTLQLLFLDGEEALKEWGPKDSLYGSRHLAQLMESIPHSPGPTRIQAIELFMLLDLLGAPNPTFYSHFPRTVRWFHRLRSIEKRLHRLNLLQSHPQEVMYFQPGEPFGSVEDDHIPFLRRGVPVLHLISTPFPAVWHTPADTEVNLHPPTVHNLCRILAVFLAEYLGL

IC50 [1]: < 100 nM
IC50 [2]: < 100 nM
SMILES: Cn1cncc1C1CCN(c2c(C#N)ccnc2-c2ccc(F)nc2)CC1 [US20240101544, Example 134]
